From PubChem BioAssay AID2060511 (Molecular Pharmacology Branch, DTP, NCI, 2025)

Test system: 422866-222-R5-J1-PDC spheroids with HUVEC/MSC, viability
Experiment: Anticancer human tumor 422866-222-R5-J1-PDC patient-derived pancreatic adenocarcinoma cell line growth inhibition [GQUAD]
Conditions: for IC50: curve of first compound; for viability, T/C: stronger effect = lower value; active means viability on the fitted dose curve at most 10% of control; inactive means the rest
Outline: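 Tumor cells were grown as complex spheroids with HUVEC endothelial cells and mesenchymal stem cells as stroma. G-quadruplex stabilizers were combined with targeted agents over half-log dilutions from near the clinical Cmax, or from 10 microM.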
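Further: spheroids exposed to compounds for seven days before reading.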
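Wherever viability, T/C is given: percent viability relative to DMSO vehicle control taken as 100%.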

COc1ncnc(C2CC2)c1-c1ncc2cnn(Cc3ccc(-c4nc(C(F)(F)F)cn4C(C)C)cc3)c2n1 + Cc1cnc(CNC(=O)c2c(=O)c3ccc(N4CCCN(C)CC4)nc3n3c2sc2ccccc23)cn1
inactive: viability, T/C (second compound 0.0316 µM, first compound 0.0316 µM) 86.6% | viability, T/C (second compound 0.0316 µM, first compound 0.1 µM) 79.2% | viability, T/C (second compound 0.0316 µM, first compound 0.316 µM) 84.4% | viability, T/C (second compound 0.0316 µM, first compound 1 µM) 74.3% | viability, T/C (second compound 0.0316 µM, first compound 3.16 µM) 91.5% | viability, T/C (second compound 0.0316 µM, first compound 10 µM) 93.6% | viability, T/C (second compound 0.1 µM, first compound 0.0316 µM) 99.4% | viability, T/C (second compound 0.1 µM, first compound 0.1 µM) 74.7% | viability, T/C (second compound 0.1 µM, first compound 0.316 µM) 82.9% | viability, T/C (second compound 0.1 µM, first compound 1 µM) 88.8% | viability, T/C (second compound 0.1 µM, first compound 3.16 µM) 101% | viability, T/C (second compound 0.1 µM, first compound 10 µM) 86.5% | viability, T/C (second compound 0.316 µM, first compound 0.0316 µM) 84.4% | viability, T/C (second compound 0.316 µM, first compound 0.1 µM) 72.4% | viability, T/C (second compound 0.316 µM, first compound 0.316 µM) 78.8% | viability, T/C (second compound 0.316 µM, first compound 1 µM) 80.4% | viability, T/C (second compound 0.316 µM, first compound 3.16 µM) 93.2% | viability, T/C (second compound 0.316 µM, first compound 10 µM) 94% | viability, T/C (second compound 1 µM, first compound 0.0316 µM) 63% | viability, T/C (second compound 1 µM, first compound 0.1 µM) 80.1% | viability, T/C (second compound 1 µM, first compound 0.316 µM) 84.3% | viability, T/C (second compound 1 µM, first compound 1 µM) 85.4% | viability, T/C (second compound 1 µM, first compound 3.16 µM) 82.3% | viability, T/C (second compound 1 µM, first compound 10 µM) 98.8% | viability, T/C (second compound 3.16 µM, first compound 0.0316 µM) 71.8% | viability, T/C (second compound 3.16 µM, first compound 0.1 µM) 80.4% | viability, T/C (second compound 3.16 µM, first compound 0.316 µM) 82.7% | viability, T/C (second compound 3.16 µM, first compound 1 µM) 71.9% | viability, T/C (second compound 3.16 µM, first compound 3.16 µM) 98.1% | viability, T/C (second compound 3.16 µM, first compound 10 µM) 98% | viability, T/C (second compound 10 µM, first compound 0.0316 µM) 70.3% | viability, T/C (second compound 10 µM, first compound 0.1 µM) 80.7% | viability, T/C (second compound 10 µM, first compound 0.316 µM) 88.6% | viability, T/C (second compound 10 µM, first compound 1 µM) 72.8% | viability, T/C (second compound 10 µM, first compound 3.16 µM) 84.7% | viability, T/C (second compound 10 µM, first compound 10 µM) 88.2%
> 10 µM: IC50 (second compound 0.0316 µM) | IC50 (second compound 0.1 µM) | IC50 (second compound 0.316 µM) | IC50 (second compound 1 µM) | IC50 (second compound 3.16 µM) | IC50 (second compound 10 µM)
